According to US9439979B2, “Epidermal growth factor receptor (EGFR) and methods of use in adenoviral-associated virus type 6 (AAV6) transduction” (priority 2010, dated 2016):

Legend:
HEK293T cells = assay type: cell-based, human; conditions: inhibitor 10 μm; for effect on AAV2 transduction of HEK293T cells: same conditions
Description: (§1) AAV transduction and pharmacological inhibition. The 32D and 32D-EGFR cells were transduced with 1.0E4 genomic particle (gp)/cell with each of the AAV serotypes tested. Cells were analyzed for GFP expression by FACS analysis at 96 hours posttransduction. The HEK293T, HN12 and HEp-2 cells, shown to be permissive to AAV2 and/or AAV6, were used to evaluate the specific role of EGFR in AAV-mediated transduction. Cells were incubated at 37° C. in the presence or absence of AG1478 (10 μm) or gefitnib (10 μm) for 30 minutes prior to addition of AAV. AAV2 and AAV6 containing the CMV-NLS-eGFP construct were added at a concentration of 1.0×10^4 gp/ml for 90 minutes.

HEp-2 cells = test: AAV transduction and pharmacological inhibition in HEp-2 cells; assay type: cell-based
Description: (§2) In vitro transduction of HEp-2 and HN12 cells with AAV2 and AAV6 in the presence or absence of the EGFR inhibitor, AG1478, was studied. […] Transduction of HN12 cells in the presence of AG1478 was reduced by 77% (***p<0.0005, n=3).
as §1
(§3) Increased expression of EGFR correlates with aggressive head and neck squamous cell carcinoma (HNSCC) tumor growth and resistance to treatment (Thariat, J., et al., Int. J. Clin. Oncol., 12: 99-110 (2007)). The utility of AAV6 to transduce and ablate specific HNSCCs presenting with elevated EGFR expression was assessed by gene-directed enzyme prodrug therapy. Two HNSCC cell lines, HN12 and HEp-2 were selected to represent polarities of EGFR expression.

HN12 cells = test: AAV transduction and pharmacological inhibition in HN12 cells; assay type: cell-based
Description: as §2, §1, §3

Compound | effect on AAV2 transduction of HEK293T cells (HEK293T cells) | effect on AAV6 transduction of HEp-2 cells (HEp-2 cells; in the presence of AG1478) | effect on AAV2-mediated transduction of HEp-2 cells (HEp-2 cells; presence or absence of AG1478) | inhibition of AAV6 transduction of HEK293T cells (HEK293T cells; 30 minutes preincubation, AAV6-CMV-eGFP, FACS 48 hours) | reduction of AAV6 transduction of HN12 cells (HN12 cells; in the presence of AG1478 (10 μm), FACS 96 hours) | effect on AAV2-mediated transduction of HN12 cells (HN12 cells; presence or absence of AG1478)
COc1cc2ncnc(Nc3ccc(F)c(Cl)c3)c2cc1OCCCN1CCOCC1 [gefitinib] | unchanged | – | – | – | – | –
AG1478 | unchanged | not altered | no significant (NS) difference | 50% | 77% | no significant (NS) difference
